Laboratory results reported in patent publication US20190038689A1, “TOPICAL SKIN COMPOSITIONS FOR TREATING ERYTHEMA OR SKIN INFLAMMATION” (MARY KAY INC., priority 2017, published 2019).

Test system: Nitric oxide synthases (NOS)
Experiment: Nitric Oxide Synthase Activity Assay (NO product measured as nitrite, improved Griess method)
Assay type: biochemical
Conditions: for Nitric Oxide Synthase Activity: negative = reduction
Method: Nitric Oxide Synthase Activity Assay:
Nitric oxide synthases (NOS) are a family of enzymes catalyzing the production of nitric oxide (NO) from L-arginine. NOS is an important mediator of vasodilation in blood vessels. This bioassay was used to analyze the effect of saccharide isomerate extract, Myrothamnus flabellifolia extract, [6]-paradol, and a combination of algae extract and mugwort (Artemisia vulgaris) extract on the activity of NOS. The bioassay is performed in the presence or absence of the test compound, test extract, or positive control during production of NO by NOS. To measure the activity of NOS, the NO product is allowed to oxidize to nitrite and nitrate and then the nitrate is reduced to nitrite and measured using an improved Griess method. It was shown that saccharide isomerate extract, Myrothamnus flabellifolia extract, [6]-paradol, and a combination of algae extract and mugwort (Artemisia vulgaris) extract reduced the activity of NOS greater than the 1 μM SIN-1 positive control.

Row | SMILES | activity of NOS was reduced by (1 μM positive control) | Nitric Oxide Synthase Activity (1 μM, positive control) | Nitric Oxide Synthase Activity (1% ingredient) | activity of NOS was reduced by (rounded values of Table 2 (1% ingredient))
1 | [NH-]c1c[n+](N2CCOCC2)no1 [SIN-1] | approximately 29% | −28.7% |  | 
2 | CCCCCCCC(=O)CCc1ccc(O)c(OC)c1 [SYMRELIEF ® S, 1-(4-hydroxy-3-methoxyphenyl)decan-3-one] |  |  | −46.617% | ~47%
